# Measured values as given in patent publication US20130071892A1, “PROCESS FOR PRODUCTION OF POLYHYDROXYALKANOIC ACID USING GENETICALLY MODIFIED MICROORGANISM HAVING ENOYL-CoA HYDRATASE GENE INTRODUCED THEREIN” (TOKYO INSTITUTE OF TECHNOLOGY, priority 2010, published 2013).
# T1: C. necator R form-specific enoyl-CoA hydratase PhaJ1 (phaJ1 gene, H16_A1070, SEQ ID NO: 2), wild type, recombinant N-terminal His tag (Cupriavidus necator, UniProt Q0KCR0)
# T1 sequence (Q0KCR0 1-158): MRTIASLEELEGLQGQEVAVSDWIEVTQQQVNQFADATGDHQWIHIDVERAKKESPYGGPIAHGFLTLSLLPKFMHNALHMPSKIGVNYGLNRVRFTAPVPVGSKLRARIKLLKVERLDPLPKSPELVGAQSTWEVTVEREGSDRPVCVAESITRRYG
# B1: C. necator R form-specific enoyl-CoA hydratase PhaJ2 (phaJ2 gene, H16_B0397, SEQ ID NO: 3), wild type, recombinant N-terminal His tag (Cupriavidus necator H16) (protein)
# chain: MKTYENIADLQPLVGEVIGTSEWLALDQARINTFADATGDHQWIHVDVERAKNGPFGAPIAHGFLTLSLLPAFTHSAYRIRNSSTGVNYGLDKVRFPAPVPVDSLLRAQFKLMSYEALENGGAQFKVEMMVERQGGSKPVCIAESILRRFP
# B2: PhaJ2: purified His-tagged recombinant protein expressed in E. coli from phaJ2 (SEQ ID NO: 3) of C. necator; (R)-form-specific enoyl-CoA hydratase (protein)
# chain: MKTYENIADLQPLVGEVIGTSEWLALDQARINTFADATGDHQWIHVDVERAKNGPFGAPIAHGFLTLSLLPAFTHSAYRIRNSSTGVNYGLDKVRFPAPVPVDSLLRAQFKLMSYEALENGGAQFKVEMMVERQGGSKPVCIAESILRRFP
# modifications: His tag; Cupriavidus necator R-hydratase gene (phaJ2); Cupriavidus necator strain H16 (R)-form- specific enoyl-CoA hydratase (R-hydratase, phaJ2), H16_B0397
# B3: C. necator R form-specific enoyl-CoA hydratase PhaJ1 (phaJ1 gene, H16_A1070, SEQ ID NO: 2), wild type, recombinant N-terminal His tag (Cupriavidus necator H16) (protein)
# chain: MRTIASLEELEGLQGQEVAVSDWIEVTQQQVNQFADATGDHQWIHIDVERAKKESPYGGPIAHGFLTLSLLPKFMHNALHMPSKIGVNYGLNRVRFTAPVPVGSKLRARIKLLKVERLDPLPKSPELVGAQSTWEVTVEREGSDRPVCVAESITRRYG
# B4: PhaJ1: purified His-tagged recombinant protein expressed in E. coli from phaJ1 (SEQ ID NO: 2) of C. necator; (R)-form-specific enoyl-CoA hydratase (protein)
# chain: MRTIASLEELEGLQGQEVAVSDWIEVTQQQVNQFADATGDHQWIHIDVERAKKESPYGGPIAHGFLTLSLLPKFMHNALHMPSKIGVNYGLNRVRFTAPVPVGSKLRARIKLLKVERLDPLPKSPELVGAQSTWEVTVEREGSDRPVCVAESITRRYG
# modifications: His tag; Cupriavidus necator; Cupriavidus necator strain H16 (R)-form- specific enoyl-CoA hydratase (R-hydratase, phaJ1), H16_A1070
# Legend:
# [1] = target: T1, C. necator R form-specific enoyl-CoA hydratase PhaJ1 (phaJ1 gene, H16_A1070, SEQ ID NO: 2), wild type, recombinant N-terminal His tag; experiment: enoyl-CoA hydratase activity, absorbance decrease at 263 nm, Lineweaver-Burk analysis; type: biochemical, Cupriavidus necator H16; settings: 100 mM Tris-HCl buffer (pH 7.8)
# From the text: (§1) By homology search with a known R form-specific enoyl CoA hydratase, phaJ1 (SEQ ID NO: 2), phaJ2 (SEQ ID NO: 3), and phaJ3 were identified as a presumptive R form-specific enoyl CoA hydratase gene. Then, using the genomic DNA of C. necator as the template, phaJ1 was amplified by a PCR method with the oligonucleotides of the following sequence 19 and sequence 20 as the primers. Similarly, phaJ2 was amplified by a PCR method with the oligonucleotides of sequence 21 and sequence 22 as the primers. Furthermore, phaJ3 was amplified by a PCR method with the oligonucleotides of sequence 23 and sequence 24 as the primers. Using the KOD Plus (manufactured by TOYOBO) for PCR, a cycle comprising 20 seconds at 98° C., 15 seconds at 61° C. and 2 minutes at 68° C. was repeated for 30 cycles.
# (§2) Each fragment of phaJ1, phaJ2 and phaJ3 that were amplified and cleaved with NdeI and XhoI in Example 16 was inserted into an expression plasmid pCOLDII (manufactured by Takara-Bio) cleaved with each of NdeI and XhoI. The plasmids obtained were designated as pCOLD-J1, pCOLD-J2 and pCOLD-J3. These expression plasmids have been constructed so as to produce recombinant protein in which a tag sequence (hereinafter referred to as His tag) comprising 6 histidine residues has been added to the amino terminal end. Using pCOLD-J1, pCOLD-J2 and pCOLD-J3, E. coli strain BL21 (DE3) (manufactured by Novagen) was transformed. Each transformant obtained was cultured in 100 mL of LB medium with 100 mg ampicillin at 37° C. for 4 hours, to which isopropyl-thiogalacto-pyranoside (IPTG) was added at a final concentration of 0.5 mM to induce expression, and further culcuted at 15° C. for 24 hours. The cells collected by centrifugation were resuspended in 20 mM sodium phosphate buffer (pH 7.4) containing 30 mM imidazole and 500 mM NaCl, sonic-disrupted and centrifuged to obtain soluble protein fractions.
# (§3) This soluble protein fraction was filtered with a filter having a pore size of 0.22 μm. Then, this was subjected to the HisTrap FF crude column (1 ml) (manufactured by GE Healthcare) equalized in advance with 20 mM sodium phosphate buffer (pH 7.4) containing 30 mM imidazole and 500 mM NaCl so as to allow the His tag-carrying protein to be adsorbed. Subsequently, by linearly increasing the imidazole concentration from 30 mM to 500 mM, the adsorbed protein was eluted and recovered to prepare purified enzyme.
# (§4) Proteins expressed from the three genes, phaJ1, phaJ2 and phaJ3, derived from C. necator are hereinafter referred to as PhaJ1, PhaJ2 and PhaJ3, respectively. For each of purified recombinant protein products produced in E. coli, the activity of enoyl-CoA hydratase when crotonyl-CoA (4 carbons), 2-hexenoyl-CoA (6 carbons) or 2-octenoyl-CoA (8 carbons) was used as the substrate was determined according to the method described in Non-patent document 4. Thus, the purified enzyme was added to 100 mM Tris-HCl buffer (pH 7.8) containing the substrate (a total volume of 400 μl), and reduction in absorbance at 263 nm was measured with a spectrophotometer. At this time, the measured values obtained by varying the substrate concentration were analyzed by the Lineweaver-Burk plot to calculate the Michaelis constant Km, and the maximum velocity Vmax.
# [2] = system: C. necator R form-specific enoyl-CoA hydratase PhaJ3 (phaJ3 gene), wild type, recombinant N-terminal His tag; experiment: as above; type: biochemical, Cupriavidus necator H16; settings: 100 mM Tris-HCl buffer (pH 7.8); for Km: read-out: Michaelis constant Km
# From the text: as §1, §2, §3, §4
# [3] = target: C. necator R form-specific enoyl-CoA hydratase PhaJ2 (phaJ2 gene, H16_B0397, SEQ ID NO: 3), wild type, recombinant N-terminal His tag (Cupriavidus necator, UniProt Q0K478); experiment: as above; type: biochemical, Cupriavidus necator H16; settings: 100 mM Tris-HCl buffer (pH 7.8)
# From the text: as §1, §2, §3, §4
# [4] = substrate: C/C=C/C(=O)SCCNC(=O)CCNC(=O)[C@H](O)C(C)(C)COP(=O)(O)OP(=O)(O)OC[C@H]1O[C@@H](n2cnc3c(N)ncnc32)[C@H](O)[C@@H]1OP(=O)(O)O; experiment: as above; type: biochemical, Cupriavidus necator H16
# From the text: as §1, §2, §3, §4
# [5] = substrate: CCC/C=C/C(=O)SCCNC(=O)CCNC(=O)[C@H](O)C(C)(C)COP(=O)(O)OP(=O)(O)OC[C@H]1O[C@@H](n2cnc3c(N)ncnc32)[C@H](O)[C@@H]1OP(=O)(O)O; experiment: as above; type: biochemical, Cupriavidus necator H16
# From the text: as §1, §2, §3, §4
# [6] = substrate: CCCCC/C=C/C(=O)SCCNC(=O)CCNC(=O)[C@H](O)C(C)(C)COP(=O)(O)OP(=O)(O)OC[C@H]1O[C@@H](n2cnc3c(N)ncnc32)[C@H](O)[C@@H]1OP(=O)(O)O; experiment: as above; type: biochemical, Cupriavidus necator H16
# From the text: as §1, §2, §3, §4
# [7] = stereoselectivity of the hydration reaction, coupled with PHA granule-mediated polymerization and DTNB; type: biochemical; settings: for absorbance at 412 nm: 0.2 mM crotonyl-CoA, 1 mM DTNB, 5 μl PHA granule fraction, 100 mM Tris-HCl pH 7.8, FIG. 4; for stereoselectivity of the hydration reaction: concluded from the CoA-SH release with PHA granule fraction and DTNB
# From the text: FIG. 4 The result of investigating the stereoselectivity of PhaJ1, PhaJ2 and PhaJ3 by the conjugation of the enoyl-CoA hydratase-mediated hydration reaction and the PHA granules-mediated polymerization reaction. (A) PhaJ1, (B) PhaJ2, and (C) PhaJ3; dark square: purified enzyme added, open triangle: no purified enzyme added.
# In the above measurement of enoyl-CoA hydratase activity, no findings can be obtained on stereoselectivity at the addition of water to the double bond. Thus, the stereoselectivity of the hydration reaction by PhaJ1, PhaJ2 and PhaJ3 was investigated as follows. From the cells of C. necator that accumulated PHA, a water-insoluble PHA granule fraction can be prepared, but PHA synthetic synthase is bound to the surface of the PHA granules. This PHA synthase specifically polymerizes (R)-3-hydroxyacyl-CoA and releases CoA-SH. Thus, when both of the PHA granule fraction and 5,5′-dithiobis(2-nitrobenzoic acid) (DTNB) are present in the reaction solution for determining enoyl-CoA hydratase activity, COA-SH released together with the polymerization by PHA synthase reacts with DTNB to produce a yellow dye having a specific absorption at 412 nm, if the specificity of enoyl-CoA hydratase is (R)-form-specific. Conversely, when enoyl-CoA hydratase is (S)-form-specific, no yellow dye is produced.
# Measurement was carried out according to the method described in Non-patent document 4. Thus, the PHA granule fraction was prepared from the cells of the C. necator wild type strain (the H16 strain) cultured for 36 hours in 100 ml of a medium containing fructose as a carbon source in a method described in Example 18. The cells were collected by centrifugation from the culture, and suspended in 3 ml of 50 mM Tris-HCl buffer (pH 7.5) followed by sonic-disruption. The supernatant obtained by low-speed centrifugation of the disruption liquid at 1,500×g, 5 min was further subjected to high-speed centrifugation at 15,000×g, 15 min. And the precipitate fraction was suspended in 3 ml of 50 mM Tris-HCl buffer (pH 7.5) to prepare a PHA granule fraction. Then, the purified enzyme was added to 100 mM Tris-HCl buffer (pH 7.8) containing 0.2 mM crotonyl-CoA, 1 mM DTNB and 5 μl PHA granule fraction (a total volume of 400 μl), and an increase in absorbance at 412 nm was measured.
# [8] = other: PhaJ2, 100 mM Tris-HCl buffer (pH 7.8)
# [9] = other: PhaJ1, 100 mM Tris-HCl buffer (pH 7.8)
molecule,measurement,setting,value
"CCCCC/C=C/C(=O)SCCNC(=O)CCNC(=O)[C@H](O)C(C)(C)COP(=O)(O)OP(=O)(O)OC[C@H]1O[C@@H](n2cnc3c(N)ncnc32)[C@H](O)[C@@H]1OP(=O)(O)O [2-oxtenoyl-CoA (C8), 2-octenoyl-CoA]",Maximum velocity Vmax,[1],6.7 ± 0.7 × 10^2 U mg^−1
same,Maximum velocity Vmax,[2],2.8 ± 0.5 × 10^2 U mg^−1
same,Km,[2],38 ± 12 µM
same,Maximum velocity Vmax,[3],2.0 ± 0.1 × 10^3 U mg^−1
"C/C=C/C(=O)SCCNC(=O)CCNC(=O)[C@H](O)C(C)(C)COP(=O)(O)OP(=O)(O)OC[C@H]1O[C@@H](n2cnc3c(N)ncnc32)[C@H](O)[C@@H]1OP(=O)(O)O [Crotonyl-CoA (C4), crotonyl-CoA]",Maximum velocity Vmax,[2],1.3 ± 0.2 × 10^1 U mg^−1
same,Km,[2],178 ± 46 µM
same,Maximum velocity Vmax,[3],1.4 ± 0.1 × 10^2 U mg^−1
"CCC/C=C/C(=O)SCCNC(=O)CCNC(=O)[C@H](O)C(C)(C)COP(=O)(O)OP(=O)(O)OC[C@H]1O[C@@H](n2cnc3c(N)ncnc32)[C@H](O)[C@@H]1OP(=O)(O)O [2-hexenoyl-CoA (C6), 2-hexenoyl-CoA]",Maximum velocity Vmax,[1],7.0 ± 0.5 × 10^2 U mg^−1
same,Maximum velocity Vmax,[2],1.1 ± 0.1 × 10^2 U mg^−1
same,Km,[2],110 ± 16 µM
same,Maximum velocity Vmax,[3],2.4 ± 0.3 × 10^3 U mg^−1
B1,Km,[4]; [8],311 ± 15 µM
same,Km,[5]; [8],77 ± 14 µM
same,Km,[6]; [8],23 ± 4 µM
B2,absorbance at 412 nm,[7],increase
same,stereoselectivity of the hydration reaction,[7],(R)-form-specific
B3,Km,[4]; [9],91 ± 5 µM
same,Km,[5]; [9],41 ± 7 µM
same,Km,[6]; [9],24 ± 5 µM
B4,absorbance at 412 nm,[7],increase
same,stereoselectivity of the hydration reaction,[7],(R)-form-specific
